{"source": "patent US10966993B2", "about": "“Pharmaceutical composition comprising a sulfonylurea drug and preparation method thereof” (JIANGSU AOSAIKANG PHARMACEUTICAL CO., LTD., priority 2016, dated 2021)", "key": {"[1]": {"test": "Test on the solubility of glibenclamide in additive/cyclodextrin solutions", "type": "physicochemical", "details": "for solubility at 1 h: 25 °C, aqueous with cosolvent or surfactant or cyclodextrin, thermodynamic from solid; for Solubility: 25° C.", "experimental": "An excess amount of glibenclamide powder was added into an aqueous solution comprising different proportion of additive (e.g., meglumine, sodium carbonate, sodium hydrogen carbonate or sodium hydroxide) and cyclodextrin (hydroxypropyl-β-cyclodextrin) to form a suspension. The suspension was placed in a constant shaking incubator, and shaken for 1 h at 25±1° C. The shaken suspension was filtered with a 0.45 μm hydrophilic filter membrane, with the primary filtrate being disposed and the subsequent filtrate being collected. The subsequent filtrate was diluted to appropriate times with a PBS buffer having a pH of 7.4, the absorbance of the diluted subsequent filtrate was determined at a wavelength of 225 nm, and the solubility of glibenclamide in the diluted subsequent filtrate was calculated according to the absorbance. Corresponding solubility curves were plotted with the solubility of glibenclamide as the vertical axis and the concentration of cyclodextrin and/or meglumine as the horizontal axis."}, "MCAO rats": {"test_system": "MCAO rats", "test": "Neurobehavioral scoring (Longa) in rat MCAO models", "type": "in vivo, Sprague-Dawley (SD) rat", "details": "for Neurobehavioral score (Longa Scoring, 0-4): n=8, glibenclamide 10 μg/kg ip at ischemia 4 h + 200 ng/h sc for 44 hours", "experimental": "7.2 Experiment Animals: Male Sprague-Dawley (SD) rat, clean grade, weighing at 200˜230 g. The temperature of animal feeding room was maintained at 20˜24° C., the humidity was maintained at 30˜70%; a cycle of lighting on 12 hours/lighting off 12 hours (06:00 AM on, 18:00 PM off) every day was employed. During the experiment, the animals were feed separately, and had free access to water and food.\nThe test drugs in group GB was formulated as follows: glibenclamide was dissolved in a little DMSO (dimethyl sulfoxide), the resulting solution was diluted to a DMSO concentration of 5 vol % with physiological saline, and the pH of the solution was adjusted to 8˜8.5 with NaOH. By means of the above process, solutions with glibenclamide concentration of 200 μg/ml and 10 μg/ml were respectively formulated.\nThe test drugs in group H-GB was formulated as follows: Taking the lyophilized product of Example 13, into which was added an appropriate amount of physiological saline and respectively formulated into a solution with a glibenclamide concentration of […].\nRats were rested for about 1 week before the experiment started. On the day of the experiment, the surgical tools were sterilized by autoclaving. The rats were anesthetized by intraperitoneally injecting chloral hydrate (330 mg/kg). The common carotid artery and external carotid artery of the rats were separated, and a sterilized MCAO monofilament was used to insert into the internal carotid artery through the opening of the external carotid artery to a depth of about 18 mm, until the head of the monofilament reached the starting part of the middle cerebral artery, the opening of the external carotid artery was ligatured to fix the monofilament. […] The blood flow in the brain was monitored with a laser Doppler (Model moorVMS-LDF2, Manufacturer moor) respectively pre-operation, post-operation and immediately after reperfusion, and the molding in which the ratio of the postoperative blood flow to the preoperative blood flow was less than 30% was regarded as a qualified molding. […]"}}, "note": "Where two headings read alike, the source gives them in different places."}
{"smiles": "COc1ccc(Cl)cc1C(=O)NCCc1ccc(S(=O)(=O)NC(=O)NC2CCCCC2)cc1", "note": "[glibenclamide, 5-chloro-N-(4-[N-(cyclohexylcarbamoyl)aminosulfonyl]phenethyl)-2-methoxybenzamide]", "values": [{"measurement": "solubility at 1 h", "setting": "[1]; sodium carbonate 0.1% (w/v), 2-hydroxypropyl-β-cyclodextrin 10% (w/v), read-out: Solubility", "value": 6510, "unit": "µg/mL"}, {"measurement": "solubility at 1 h", "setting": "[1]; sodium carbonate 0.1% (w/v), 2-hydroxypropyl-β-cyclodextrin 20% (w/v), read-out: Solubility", "value": 10600, "unit": "µg/mL"}, {"measurement": "solubility at 1 h", "setting": "[1]; sodium carbonate 0.1% (w/v), 2-hydroxypropyl-β-cyclodextrin 30% (w/v), read-out: Solubility", "value": 10800, "unit": "µg/mL"}, {"measurement": "solubility at 1 h", "setting": "[1]; sodium carbonate 0.1% (w/v), 2-hydroxypropyl-β-cyclodextrin 40% (w/v), read-out: Solubility", "value": 10900, "unit": "µg/mL"}, {"measurement": "solubility at 1 h", "setting": "[1]; sodium carbonate 0.1% (w/v), cyclodextrin from 5% (w/v) to 20% (w/v), read-out: water solubility of glibenclamide", "value": "2350 to 10600", "unit": "µg/mL"}, {"measurement": "solubility at 1 h", "setting": "[1]; sodium carbonate 0.1% (w/v), cyclodextrin from 20% (w/v) to 40% (w/v), read-out: solubility of glibenclamide", "value": "~10600", "unit": "µg/mL"}, {"measurement": "solubility at 1 h", "setting": "[1]; sodium hydrogen carbonate 4% (w/v), 2-hydroxypropyl-β-cyclodextrin 0.5% (w/v), read-out: Solubility", "value": 320, "unit": "µg/mL"}, {"measurement": "solubility at 1 h", "setting": "[1]; sodium hydrogen carbonate 4% (w/v), 2-hydroxypropyl-β-cyclodextrin 1.25% (w/v), read-out: Solubility", "value": 590, "unit": "µg/mL"}, {"measurement": "solubility at 1 h", "setting": "[1]; sodium hydrogen carbonate 4% (w/v), 2-hydroxypropyl-β-cyclodextrin 5% (w/v), read-out: Solubility", "value": 1260, "unit": "µg/mL"}, {"measurement": "solubility at 1 h", "setting": "[1]; sodium hydrogen carbonate 4% (w/v), 2-hydroxypropyl-β-cyclodextrin 10% (w/v), read-out: Solubility", "value": 1690, "unit": "µg/mL"}, {"measurement": "solubility at 1 h", "setting": "[1]; sodium hydrogen carbonate 4% (w/v), 2-hydroxypropyl-β-cyclodextrin 20% (w/v), read-out: Solubility", "value": 1730, "unit": "µg/mL"}, {"measurement": "solubility at 1 h", "setting": "[1]; sodium hydrogen carbonate 4% (w/v), 2-hydroxypropyl-β-cyclodextrin 30% (w/v), read-out: Solubility", "value": 1780, "unit": "µg/mL"}, {"measurement": "solubility at 1 h", "setting": "[1]; sodium hydrogen carbonate 4% (w/v), 2-hydroxypropyl-β-cyclodextrin 40% (w/v), read-out: Solubility", "value": 1750, "unit": "µg/mL"}, {"measurement": "solubility at 1 h", "setting": "[1]; sodium hydrogen carbonate 4% (w/v), cyclodextrin from 0.5% (w/v) to 10% (w/v), read-out: water solubility of glibenclamide", "value": "320 to 1690", "unit": "µg/mL"}, {"measurement": "solubility at 1 h", "setting": "[1]; sodium hydrogen carbonate 4% (w/v), cyclodextrin from 10% (w/v) to 40% (w/v), read-out: solubility of glibenclamide", "value": "~1690", "unit": "µg/mL"}, {"measurement": "solubility at 1 h", "setting": "[1]; sodium hydroxide 0.01% (w/v), 2-hydroxypropyl-β-cyclodextrin 1.25% (w/v), read-out: Solubility", "value": 370, "unit": "µg/mL"}, {"measurement": "solubility at 1 h", "setting": "[1]; sodium hydroxide 0.01% (w/v), 2-hydroxypropyl-β-cyclodextrin 2.5% (w/v), read-out: Solubility", "value": 640, "unit": "µg/mL"}, {"measurement": "solubility at 1 h", "setting": "[1]; sodium hydroxide 0.01% (w/v), 2-hydroxypropyl-β-cyclodextrin 5% (w/v), read-out: Solubility", "value": 810, "unit": "µg/mL"}, {"measurement": "solubility at 1 h", "setting": "[1]; sodium hydroxide 0.01% (w/v), 2-hydroxypropyl-β-cyclodextrin 10% (w/v), read-out: Solubility", "value": 1260, "unit": "µg/mL"}, {"measurement": "solubility at 1 h", "setting": "[1]; sodium hydroxide 0.01% (w/v), 2-hydroxypropyl-β-cyclodextrin 30% (w/v), read-out: Solubility", "value": 1240, "unit": "µg/mL"}, {"measurement": "solubility at 1 h", "setting": "[1]; sodium hydroxide 0.01% (w/v), 2-hydroxypropyl-β-cyclodextrin 40% (w/v), read-out: Solubility", "value": 1350, "unit": "µg/mL"}, {"measurement": "solubility at 1 h", "setting": "[1]; sodium hydroxide 0.01% (w/v), cyclodextrin from 0.5% (w/v) to 10% (w/v), read-out: water solubility of glibenclamide", "value": "140 to 1260", "unit": "µg/mL"}, {"measurement": "solubility at 1 h", "setting": "[1]; sodium hydroxide 0.01% (w/v), cyclodextrin from 10% (w/v) to 40% (w/v), read-out: solubility of glibenclamide", "value": "~1260", "unit": "µg/mL"}, {"measurement": "Solubility", "setting": "[1]; meglumine 0% (w/v), 2-hydroxypropyl-β-cyclodextrin 30% (w/v)", "value": 86, "unit": "µg/mL"}, {"measurement": "Solubility", "setting": "[1]; meglumine 0% (w/v), 2-hydroxypropyl-β-cyclodextrin 40% (w/v)", "value": 120, "unit": "µg/mL"}, {"measurement": "Solubility", "setting": "[1]; sodium hydrogen carbonate 4% (w/v), 2-hydroxypropyl-β-cyclodextrin 2.5% (w/v)", "value": 840, "unit": "µg/mL"}, {"measurement": "Solubility", "setting": "[1]; sodium hydroxide 0.01% (w/v), 2-hydroxypropyl-β-cyclodextrin 20% (w/v)", "value": 1300, "unit": "µg/mL"}, {"measurement": "neurobehavioral scores compared with the control (in words)", "setting": "MCAO rats; at 24 h, 48 h", "value": "declines"}, {"measurement": "Neurobehavioral score (Longa Scoring, 0-4)", "setting": "MCAO rats; scored at ischemia 24 h", "value": "1.75 ± 0.25"}, {"measurement": "Neurobehavioral score (Longa Scoring, 0-4)", "setting": "MCAO rats; scored at ischemia 48 h", "value": "2.00 ± 0.19"}]}
